The results in this text go back to ChEMBL document CHEMBL1201862, “PubChem BioAssay data set” (2004).

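Exposure lasted 48 hours, with cells grown in 96-well plates and compounds tested at five concentrations. Here, GI50 denotes the concentration required for 50% inhibition of growth.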 Calls of active or inactive are those of the source. Cut-off read from the data, not from the text of the source: active = GI50 up to about 1.1 µM and inactive = higher.

Test systems include ACHN; CAKI-1; CCRF-CEM; HCT-116; HCT-15; HOP-92; Hs-578T; K562; LOX IMVI; M14; MDA-N; NCI-H226; NCI/ADR-RES; SF-539; SK-OV-3; SR; SW-620; T47D; UACC-257; HCC 2998.
What all share (assay): DTP human tumour cell line panel, 48 h

As to `O=C(c1cccnc1)N1N=C(c2ccc3c(c2)OCO3)CC1(O)c1cc(F)c(Cl)cc1Cl` (configuration not stated), the GI50 in the experiment on ACHN was 17.7 µM (inactive); with CAKI-1, 28.6 µM (inactive); in the experiment with CCRF-CEM it was 19.1 µM (inactive); in the experiment with HCT-116, 16.3 µM (inactive); in the experiment on HCT-15, 18 µM; in the experiment with HOP-92, 20.7 µM (inactive). Moreover, the GI50 with Hs-578T is 33 µM (inactive); in the experiment on K562, 27.9 µM (inactive); with LOX IMVI it was 16.4 µM (inactive); in the experiment on M14, 31.8 µM (inactive); in the experiment with MDA-N, 29.3 µM (inactive); in the experiment with NCI-H226, 16.2 µM (inactive). Besides, the GI50 is 18.5 µM (inactive) with NCI/ADR-RES; 16.7 µM (inactive) in the experiment on SF-539; 27.9 µM (inactive) in the experiment with SK-OV-3; 14.7 µM (inactive) with SR; 23.8 µM (inactive) in the experiment with SW-620; 3.59 µM (inactive) in the experiment with T47D. Also, the GI50 with UACC-257 is 21.1 µM (inactive).

For the compound `[O-][S+](Nc1ccccc1)c1ccc(-c2ccccc2)cc1` (configuration not stated), the GI50 with ACHN is > 100 µM (inactive); in the experiment with CCRF-CEM it was > 100 µM (inactive); in the experiment with HCC 2998, > 100 µM (inactive); with HCT-116, > 100 µM (inactive); in the experiment with HCT-15 it was above 100 µM; with Hs-578T, > 100 µM (inactive). Further, the GI50 with K562 is > 100 µM (inactive); in the experiment with LOX IMVI, 28.5 µM (inactive); with MDA-N, > 100 µM (inactive); in the experiment with NCI-H226, > 100 µM (inactive); in the experiment with NCI/ADR-RES it was > 100 µM (inactive); in the experiment on SF-539, > 100 µM (inactive). Further, the GI50 in the experiment on SR is > 100 µM (inactive); in the experiment with SW-620, > 100 µM (inactive); with T47D, 11.5 µM (inactive); with UACC-257, > 100 µM (inactive).

`c1ccc2c(c1)nnn2CN1CCOCC1`: the GI50 was > 100 µM (inactive) with ACHN; 75.7 µM (inactive) in the experiment with CAKI-1; > 100 µM (inactive) in the experiment on HCT-116; above 100 µM with HCT-15; 45.8 µM (inactive) in the experiment on HOP-92; 19.2 µM (inactive) in the experiment with Hs-578T. Moreover, the GI50 with K562 was 45 µM (inactive); with LOX IMVI it was 36.6 µM (inactive); in the experiment on M14 it was > 100 µM (inactive); with MDA-N it was 71.6 µM (inactive); in the experiment on NCI-H226, > 100 µM (inactive); in the experiment on NCI/ADR-RES, > 100 µM (inactive). Besides, the GI50 in the experiment on SR was 25 µM (inactive); with SW-620 it was 28.3 µM (inactive); in the experiment with T47D, > 100 µM (inactive); in the experiment with UACC-257 it was > 100 µM (inactive).

Turning to `CC1ON2CCCC2[C@H]1C(=O)N1C2CC3CCC2(CS1(=O)=O)C3(C)C` (some centres not stated), the GI50 was > 100 µM (inactive) in the experiment on ACHN; > 100 µM (inactive) in the experiment on CAKI-1; > 100 µM (inactive) with CCRF-CEM; > 100 µM (inactive) with HCT-116; above 100 µM in the experiment with HCT-15; > 100 µM (inactive) in the experiment with HOP-92. In addition, the GI50 in the experiment with Hs-578T, in the experiment on K562, with LOX IMVI, in the experiment on M14, in the experiment with MDA-N and in the experiment with NCI-H226 was > 100 µM (inactive) in each case. Besides, the GI50 in the experiment on NCI/ADR-RES, in the experiment on SF-539, in the experiment on SK-OV-3, with SR, in the experiment with SW-620 and in the experiment with T47D was > 100 µM (inactive) throughout. Further, the GI50 with UACC-257 was > 100 µM (inactive).

On to `NC(CCC(=O)O)(CCC(=O)O)CCC(=O)O`, for which the GI50 in the experiment on ACHN is > 100 µM (inactive); in the experiment on CAKI-1, > 100 µM (inactive); in the experiment with CCRF-CEM, > 100 µM (inactive); in the experiment on HCT-116, > 100 µM (inactive); with HCT-15 it was above 100 µM; in the experiment with HOP-92, > 100 µM (inactive). The GI50 in the experiment on Hs-578T, with K562, in the experiment with M14, with MDA-N, with NCI-H226 and in the experiment with NCI/ADR-RES was > 100 µM (inactive) throughout. For the same compound, the GI50 with SF-539, with SK-OV-3, with SR, in the experiment with SW-620, with T47D and with UACC-257 was > 100 µM (inactive) each time.

As for `CCOC(=O)CCC(NC(=O)Cc1ccc(Nc2nc3ccccc3nc2-c2cccs2)cc1)C(=O)OCC` (configuration not stated), the GI50 is > 100 µM (inactive) in the experiment on ACHN; > 100 µM (inactive) in the experiment on CAKI-1; > 100 µM (inactive) in the experiment with CCRF-CEM; > 100 µM (inactive) with HCC 2998; > 100 µM (inactive) in the experiment on HCT-116; above 100 µM in the experiment with HCT-15. Besides, the GI50 with Hs-578T was 25.1 µM (inactive); in the experiment with K562 it was > 100 µM (inactive); in the experiment on M14, > 100 µM (inactive); in the experiment on MDA-N, > 100 µM (inactive); with NCI-H226, > 100 µM (inactive); in the experiment with NCI/ADR-RES, 61.8 µM (inactive). Besides, the GI50 in the experiment with SF-539 is 24.9 µM (inactive); in the experiment on SK-OV-3, 40.8 µM (inactive); in the experiment on SR, 29.3 µM (inactive); with SW-620, > 100 µM (inactive); with T47D, 10.9 µM (inactive); in the experiment with UACC-257 it was 79.3 µM (inactive).

With `O=C(O)c1ccccn1` [2-PICOLINIC ACID], the GI50 is > 100 µM (inactive) with ACHN; > 100 µM (inactive) with CAKI-1; > 100 µM (inactive) with CCRF-CEM; > 100 µM (inactive) with HCT-116; above 100 µM in the experiment on HCT-15; > 100 µM (inactive) in the experiment on HOP-92. The GI50 in the experiment on Hs-578T, in the experiment on K562, with M14, in the experiment on MDA-N, in the experiment with NCI-H226 and in the experiment with NCI/ADR-RES was > 100 µM (inactive) each time. The GI50 in the experiment with SF-539, in the experiment with SR, in the experiment with SW-620, with T47D and in the experiment on UACC-257 was > 100 µM (inactive) throughout.

Consider `Cc1cc(S(=O)(=O)n2ccnc2O)c(SCCCN(C)C)cc1Cl`, for which the GI50 in the experiment on ACHN was > 100 µM (inactive); in the experiment with CAKI-1, > 100 µM (inactive); in the experiment on CCRF-CEM, > 100 µM (inactive); in the experiment with HCC 2998, > 100 µM (inactive); in the experiment on HCT-116 it was > 100 µM (inactive); with HCT-15 it was above 100 µM. For the same compound, the GI50 with Hs-578T, in the experiment on K562, in the experiment on LOX IMVI, in the experiment on M14, in the experiment with MDA-N and with NCI-H226 was > 100 µM (inactive) each time. The GI50 with NCI/ADR-RES, in the experiment on SF-539, in the experiment with SK-OV-3, in the experiment with SR, in the experiment on SW-620 and in the experiment on T47D was > 100 µM (inactive) throughout. The GI50 with UACC-257 was > 100 µM (inactive).

One may read the GI50 as the concentration that inhibits growth by half.
